pIC50: −log10 of the molar value.
Columns and labels:
[1] = system: histamine-induced bronchoconstriction in guinea pigs; assay: Histamine-induced bronchoconstriction reaction in guinea pigs; type: in vivo, guinea pig; details: Cavia porcellus, iv, 0.5 min, compound 0.3 mg/kg i.v., measured 30 seconds after administration, histamine 12.5 μg/kg i.v., read-out: Inhibition rate (histamine-induced bronchoconstriction)
Protocol: Guinea pigs were anesthetized with pentobarbital (30 mg/kg, i.p.). A cannula for intravenous administration, a cannula for collecting blood and measuring blood pressure, and a tracheal cannula were inserted into the left external jugular vein, right internal carotid artery, and trachea, respectively. The guinea pigs were maintained on artificial respiration under conditions of 60 times/min and 10 mL/kg/stroke. The overflowing air from the side branch of the tracheal cannula was measured by a bronchospasm transducer (Ugo-Basile) and recorded on a computer via Power Lab (ADInstruments Japan). The guinea pigs were immobilized with gallamine (10 mg/kg, i.v.), and histamine (12.5 μg/kg, i.v.) was administered at 10-minute intervals. After the histamine-induced bronchoconstriction became stable, the compound (0.3 mg/kg, i.v.) was administered. The histamine-induced bronchoconstriction reaction was measured 30 seconds after the compound administration to examine the bronchoconstriction inhibitory activity of the compound. The bronchoconstriction was recorded as the airflow value, and the results were represented by the ratio of the maximum value of the histamine-induced airflow 30 seconds after administration to the maximum value of the airflow before administration. Also, the test compounds dissolved in DMSO were used. Further, the indications were as follows: inhibition rate≧90% (+++), 90%>inhibition rate≧80% (++), and 80%>inhibition rate≧60% (+).

PDE4Bcat = target: T1, PDE4Bcat (Homo sapiens, UniProt Q07343); assay: Phosphodiesterase inhibitory activity, recombinant PDE4Bcat, [3H]cAMP; type: biochemical; details: 30° C. 20 minutes, read-out: IC50 (μmol/L) PDE4
T1 construct: made in house; host or cells: Sf9 insect cells (baculovirus, Bac-to-Bac / Gateway)

[2] = target: T2, PDE3A catalytic domain (PDE3Acat) (Homo sapiens, UniProt Q14432); assay: Phosphodiesterase inhibitory activity, recombinant PDE3Acat, [3H]cAMP; type: biochemical; details: 30° C. 20 minutes, read-out: IC50 (μmol/L) PDE3
T2 construct: isolate the cDNA of a PDE3A catalytic domain; made in house; host or cells: Sf9 insect cells (baculovirus, Bac-to-Bac / Gateway)
T2 sequence (Q14432 674-1093 limits assumed): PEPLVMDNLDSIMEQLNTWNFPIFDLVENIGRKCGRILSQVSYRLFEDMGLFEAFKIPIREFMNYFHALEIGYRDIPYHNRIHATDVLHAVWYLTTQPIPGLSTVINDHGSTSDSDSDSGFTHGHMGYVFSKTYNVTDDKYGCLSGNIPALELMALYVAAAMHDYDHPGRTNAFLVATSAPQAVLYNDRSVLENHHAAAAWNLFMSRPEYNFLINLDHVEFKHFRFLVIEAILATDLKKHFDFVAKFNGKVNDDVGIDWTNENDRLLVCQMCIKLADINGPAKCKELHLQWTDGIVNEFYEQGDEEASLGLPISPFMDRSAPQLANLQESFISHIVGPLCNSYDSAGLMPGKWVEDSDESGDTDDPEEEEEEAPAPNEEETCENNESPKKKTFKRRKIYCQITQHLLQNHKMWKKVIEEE

T1 sequence (Q07343 330-659 limits assumed): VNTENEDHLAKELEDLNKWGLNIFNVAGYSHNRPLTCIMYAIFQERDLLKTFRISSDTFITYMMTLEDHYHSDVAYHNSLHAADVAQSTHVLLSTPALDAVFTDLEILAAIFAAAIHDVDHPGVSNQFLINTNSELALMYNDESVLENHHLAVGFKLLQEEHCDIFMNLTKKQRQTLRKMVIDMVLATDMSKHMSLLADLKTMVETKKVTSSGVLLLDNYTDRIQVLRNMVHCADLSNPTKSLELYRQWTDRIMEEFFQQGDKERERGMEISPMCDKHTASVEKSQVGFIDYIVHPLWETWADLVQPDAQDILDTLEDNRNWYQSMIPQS

Compound | inhibition in vivo at 0.3 mg/kg [1] | pIC50 (PDE4Bcat) | pIC50 [2]
CCc1ccc2c(C3=NN(CCCCOc4ccc(C5=NNC(=O)CC5)cc4)C(=O)C3(C)C)ccc(OC)c2n1 [Example 200, 5-(2-Ethyl-8-methoxyquinolin-5-yl)-2-[4-[4-(6-oxo-1,4,5,6-tetrahydropyridazin-3-yl)phenoxy]butyl]-4,4-dimethyl-2,4-dihydro-pyrazol-3-one] | ≥ 90% | 7.00 to 8.00 | 6.00 to 7.00
CCc1ccc2c(C3=NN(CCCCOc4ccc(C5=NNC(=O)C5(C)C)cc4F)C(=O)C3(C)C)ccc(OC)c2n1 [Example 202, 5-(2-Ethyl-8-methoxyquinolin-5-yl)-2-[4-[2-fluoro-4-(4,4-dimethyl-5-oxo-4,5-dihydro-1H-pyrazol-3-yl)phenoxy]butyl]-4,4-dimethyl-2,4-dihydro-pyrazol-3-one] | 60 to 80% | 7.00 to 8.00 | 7.00 to 8.00
CCc1ccc2c(C3=NN(CCCCOc4ccc(C5=NNC(=O)C5(C)C)c(F)c4F)C(=O)C3(C)C)ccc(OC)c2n1 [Example 203, 5-(2-Ethyl-8-methoxyquinolin-5-yl)-2-[4-[2,3-difluoro-4-(4,4-dimethyl-5-oxo-4,5-dihydro-1H-pyrazol-3-yl)phenoxy]butyl]-4,4-dimethyl-2,4-dihydro-pyrazol-3-one] | ≥ 90% | 7.00 to 8.00 | > 8.00
COc1ccc(C2=NN(CCCCOc3ccc(C4=NNC(=O)CC4C)cc3)C(=O)C2(C)C)c2cccnc12 (stereo not drawn) [Example 212, 5-(8-Methoxyquinolin-5-yl)-2-[4-[4-(4-methyl-6-oxo-1,4,5,6-tetrahydropyridazin-3-yl)phenoxy]butyl]-4,4-dimethyl-2,4-dihydro-pyrazol-3-one] | ≥ 90% | 7.00 to 8.00 | > 8.00
COc1ccc(C2=NN(CCCCOc3ccc(C4=NNC(=O)C4(C)C)c(F)c3F)C(=O)C2(C)C)c2cccnc12 [Example 213, 2-[4-[2,3-Difluoro-4-(4,4-dimethyl-5-oxo-4,5-dihydro-1H-pyrazol-3-yl)phenoxy]butyl]-5-(8-methoxyquinolin-5-yl)-4,4-dimethyl-2,4-dihydro-pyrazol-3-one] | ≥ 90% | 7.00 to 8.00 | > 8.00
COc1ccc(C2=NN(CCCCOc3ccc(C4=NNC(=O)CC4C)c(F)c3F)C(=O)C2(C)C)c2cccnc12 (stereo not drawn) [Example 214, 2-[4-[2,3-Difluoro-4-(4-methyl-6-oxo-1,4,5,6-tetrahydropyridazin-3-yl)phenoxy]butyl]-5-(8-methoxyquinolin-5-yl)-4,4-dimethyl-2,4-dihydro-pyrazol-3-one] | ≥ 90% | 7.00 to 8.00 | > 8.00
COc1ccc(C2=NN(CCCCOc3ccc(C4=NNC(=O)CC4C)cc3F)C(=O)C2(C)C)c2cccnc12 (stereo not drawn) [Example 215, 2-[4-[2-Fluoro-4-(4-methyl-6-oxo-1,4,5,6-tetrahydropyridazin-3-yl)phenoxy]butyl]-5-(8-methoxyquinolin-5-yl)-4,4-dimethyl-2,4-dihydro-pyrazol-3-one] | ≥ 90% | 7.00 to 8.00 | > 8.00
COc1ccc(C2=NN(CCCCOc3ccc(C4=NNC(=O)CC4)c(F)c3F)C(=O)C2(C)C)c2[nH]c(C(F)(F)F)nc12 [Example 219, 2-[4-[2,3-Difluoro-4-(6-oxo-1,4,5,6-tetrahydropyridazin-3-yl)phenoxy]butyl]-5-(4-methoxy-2-trifluoromethyl-1H-benzo[d]imidazol-7-yl)-4,4-dimethyl-2,4-dihydro-pyrazol-3-one] | ≥ 90% | > 8.00 | > 8.00
COc1ccc(C2=NN(CCCCOc3ccc(C4=NNC(=O)C4(C)C)c(F)c3F)C(=O)C2(C)C)c2[nH]c(C(F)(F)F)nc12 [Example 220, 2-[4-[2,3-Difluoro-4-(4,4-dimethyl-5-oxo-4,5-dihydro-1H-pyrazol-3-yl)phenoxy]butyl]-5-(4-methoxy-2-trifluoromethyl-1H-benzo[d]imidazol-7-yl)-4,4-dimethyl-2,4-dihydro-pyrazol-3-one] | ≥ 90% | > 8.00 | 7.00 to 8.00
COc1ccc(C2=NN(CCCCOc3ccc(C4=NNC(=O)CC4C)c(F)c3F)C(=O)C2(C)C)c2[nH]c(C(F)(F)F)nc12 (stereo not drawn) [Example 221, 2-[4-[2,3-Difluoro-4-(4-methyl-6-oxo-1,4,5,6-tetrahydropyridazin-3-yl)phenoxy]butyl]-5-(4-methoxy-2-trifluoromethyl-1H-benzo[d]imidazol-7-yl)-4,4-dimethyl-2,4-dihydro-pyrazol-3-one] | ≥ 90% | > 8.00 | > 8.00
COc1ccc(C2=NN(CCCCOc3ccc(C4=NNC(=O)CC4C)c(F)c3F)C(=O)C2(C)C)c2sc(C(F)(F)F)nc12 (stereo not drawn) [Example 228, 2-[4-[2,3-Difluoro-4-(4-methyl-6-oxo-1,4,5,6-tetrahydropyridazin-3-yl)phenoxy]butyl]-5-(4-methoxy-2-trifluoromethylbenzo[d]thiazol-7-yl)-4,4-dimethyl-2,4-dihydro-pyrazol-3-one] | 80 to 90% | > 8.00 | > 8.00
COc1ccc(C2=NN(CCCCOc3ccc(C4=NNC(=O)CC4)c(F)c3F)C(=O)C2(C)C)c2sc(C(F)(F)F)nc12 [Example 229, 2-[4-[2,3-Difluoro-4-(6-oxo-1,4,5,6-tetrahydropyridazin-3-yl)phenoxy]butyl]-5-(4-methoxy-2-trifluoromethylbenzo[d]thiazol-7-yl)-4,4-dimethyl-2,4-dihydro-pyrazol-3-one] | ≥ 90% | > 8.00 | > 8.00
COc1ccc(C2=NN(CCCCOc3ccc(C4=NNC(=O)CC4C)c(F)c3F)C(=O)C2(C)C)n2cc(C(F)(F)F)nc12 (stereo not drawn) [Example 234, 2-[4-[2,3-Difluoro-4-(4-methyl-6-oxo-1,4,5,6-tetrahydropyridazin-3-yl)phenoxy]butyl]-5-(8-methoxy-2-trifluoromethylimidazo[1,2-a]pyridin-5-yl)-4,4-dimethyl-2,4-dihydro-pyrazol-3-one] | 80 to 90% | > 8.00 | > 8.00
COc1ccc(C2=NN(CCCCOc3ccc(C4=NNC(=O)CC4)c(F)c3F)C(=O)C2(C)C)n2cc(C(F)(F)F)nc12 [Example 235, 2-[4-[2,3-Difluoro-4-(6-oxo-1,4,5,6-tetrahydropyridazin-3-yl)phenoxy]butyl]-5-(8-methoxy-2-trifluoromethylimidazo[1,2-a]pyridin-5-yl)-4,4-dimethyl-2,4-dihydro-pyrazol-3-one] | 80 to 90% | > 8.00 | > 8.00
COc1ccc(C2=NN(CCCCOc3ccc(C4=NNC(=O)C4(C)C)c(F)c3F)C(=O)C2(C)C)n2cc(C(F)(F)F)nc12 [Example 236, 2-[4-[2,3-Difluoro-4-(4,4-dimethyl-5-oxo-4,5-dihydro-1H-pyrazol-3-yl)phenoxy]butyl]-5-(8-methoxy-2-trifluoromethylimidazo[1,2-a]pyridin-5-yl)-4,4-dimethyl-2,4-dihydro-pyrazol-3-one] | 60 to 80% | > 8.00 | 7.00 to 8.00
CCc1ccc2c(C3=NN(CCCCOc4ccc(C5=NNC(=O)CC5)cc4OC)C(=O)C3(C)C)ccc(OC)c2n1 [Example 238] | 60 to 80% | 6.00 to 7.00 | 6.00 to 7.00
CCc1ccc2c(C3=NN(CCCOc4ccc(C5=NNC(=O)CC5C)c(F)c4F)C(=O)C3(C)C)ccc(OC)c2n1 (stereo not drawn) [Example 241, 5-(2-Ethyl-8-methoxyquinolin-5-yl)-2-[4-[2,3-difluoro-4-(4-methyl-6-oxo-1,4,5,6-tetrahydropyridazin-3-yl)phenoxy]propyl]-4,4-dimethyl-2,4-dihydro-pyrazol-3-one] | ≥ 90% | 6.00 to 7.00 | > 8.00
